ChEMBL document CHEMBL4428049, “Design and synthesis of aminothiazole modulators of the gamma-secretase enzyme” (Bioorg Med Chem Lett, 2016)
≈ marks a conversion by molar mass, not a printed value.

Legend:
[1] = Kinetic solubility in PBS buffer at pH 7.4 by UV/vis absorbance analysis; assay type: physicochemical; details: read-out: Kinetic_solubility
Gamma-secretase = experiment: Modulation of gamma-secretase in human SH-SY5Y cells overexpressing wild-type human APP751 assessed as inhibition of Abeta42 level after 24 hrs by ELISA; assay type: cell-based

Row | Structure (SMILES) | solubility kinetic [1] | IC50 (Gamma-secretase)
1 | Cc1cn(-c2ccc(-c3csc(Nc4c5c(nn4C4CCN(C)CC4)CCCC5)n3)cc2F)cn1 | 2.8 µM (≈ 1.38 µg/mL) | > 1000 nM
2 | Cc1cn(-c2ccc(-c3csc(Nc4c5c(nn4CCCN4CCOCC4)CCCC5)n3)cc2F)cn1 | 16 µM (≈ 8.35 µg/mL) | 270 nM
3 | Cc1cn(-c2ccc(-c3csc(Nc4cc(C(C)(C)C)nn4CC(F)(F)F)n3)cc2F)cn1 | < 1.6 µM | 87 nM
4 | Cc1cn(-c2ccc(-c3csc(Nc4c5c(nn4CCN4CCOCC4)CCCC5)n3)cc2F)cn1 |  | > 1000 nM
5 | CCn1nc(C2(C)CC2)cc1Nc1nc(-c2ccc(-n3cnc(C)c3)c(F)c2)cs1 | < 1.6 µM | 67 nM
6 | Cc1cn(-c2ccc(-c3csc(Nc4c5c(nn4C(C)C)CCCC5)n3)cc2F)cn1 |  | 195 nM
7 | CCn1nc2c(c1Nc1nc(-c3ccc(-n4cnc(C)c4)c(F)c3)cs1)CCC2(C)C | 2.1 µM (≈ 0.917 µg/mL) | 62 nM
8 | CCCn1nc(C(C)(C)C)cc1Nc1nc(-c2ccc(-n3cnc(C)c3)c(F)c2)cs1 | < 1.6 µM | 86 nM
9 | Cc1cn(-c2ccc(-c3csc(Nc4[nH]nc5c4CCCC5)n3)cc2F)cn1 |  | > 1000 nM
10 | Cc1cn(-c2ccc(-c3csc(Nc4c5c(nn4C(C)C)CCC5)n3)cc2F)cn1 | < 1.6 µM | 66 nM
11 | Cc1cn(-c2ccc(-c3csc(Nc4c5c(nn4C4CCOC4)CCCC5)n3)cc2F)cn1 (stereo not given) |  | 289 nM
12 | Cc1cn(-c2ccc(-c3csc(Nc4cc(C(C)(C)C)nn4C(C)(C)C)n3)cc2F)cn1 | 2 µM (≈ 0.905 µg/mL) | 85 nM
13 | Cc1cn(-c2ccc(-c3csc(Nc4c5c(nn4C)CCCC5)n3)cc2F)cn1 |  | 208 nM
14 | Cc1cn(-c2ccc(-c3csc(Nc4c5c(nn4CC(F)(F)F)CCC5)n3)cc2F)cn1 | < 1.6 µM | 94 nM
15 | Cc1cn(-c2ccc(-c3csc(Nc4c5c(nn4C4CCC4)CCC5)n3)cc2F)cn1 | < 1.6 µM | 92 nM
16 | Cc1cn(-c2ccc(-c3csc(Nc4c5c(nn4CCCO)CCCC5)n3)cc2F)cn1 |  | 229 nM
17 | Cc1cn(-c2ccc(-c3csc(Nc4c5c(nn4CCF)CCCC5)n3)cc2F)cn1 |  | 110 nM
18 | Cc1cn(-c2ccc(-c3csc(Nc4c5c(nn4CCO)CCC5)n3)cc2F)cn1 | < 1.6 µM | > 1000 nM
19 | CCn1nccc1Nc1nc(-c2ccc(-n3cnc(C)c3)c(F)c2)cs1 |  | > 1000 nM
20 | Cc1cn(-c2ccc(-c3csc(Nc4c5c(nn4C4CCOCC4)CCCC5)n3)cc2F)cn1 |  | 766 nM
21 | Cc1cn(-c2ccc(-c3csc(Nc4cc(C(F)(F)F)nn4C(C)(C)C)n3)cc2F)cn1 |  | 121 nM
22 | Cc1cn(-c2ccc(-c3csc(Nc4cc(C(C)(C)C)nn4C(C)C)n3)cc2F)cn1 |  | 87 nM
23 | COCCn1nc2c(c1Nc1nc(-c3ccc(-n4cnc(C)c4)c(F)c3)cs1)CCCC2 | 2.3 µM (≈ 1.04 µg/mL) | 272 nM
